Patent US20220002314A1 (priority 2018, published 2022)
Like-named read-outs stand apart in the source and are kept apart here.

Experiments:
[1] = molecular target: Human α2δ-1 subunit of Cav2.2 calcium channel (Homo sapiens, UniProt P54289); test: biochemical; format: binding
Human μ-opioid receptor = Human μ-opioid receptor (Homo sapiens, UniProt P35372); test: biochemical; format: binding
Human μ-opioid receptor, sequence (P35372 whole entry): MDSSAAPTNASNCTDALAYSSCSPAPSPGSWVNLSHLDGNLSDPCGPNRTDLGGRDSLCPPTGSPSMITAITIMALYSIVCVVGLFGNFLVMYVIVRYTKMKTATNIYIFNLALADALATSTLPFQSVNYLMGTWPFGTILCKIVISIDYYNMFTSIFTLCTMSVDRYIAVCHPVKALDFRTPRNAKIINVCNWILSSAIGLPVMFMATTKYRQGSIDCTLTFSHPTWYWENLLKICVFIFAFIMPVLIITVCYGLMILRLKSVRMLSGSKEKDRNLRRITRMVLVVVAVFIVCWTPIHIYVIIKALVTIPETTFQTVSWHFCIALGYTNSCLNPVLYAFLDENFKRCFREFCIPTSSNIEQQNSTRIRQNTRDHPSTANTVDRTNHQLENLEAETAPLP

Human α2δ-1 subunit of Cav2.2 calcium channel, sequence (P54289 25-1103): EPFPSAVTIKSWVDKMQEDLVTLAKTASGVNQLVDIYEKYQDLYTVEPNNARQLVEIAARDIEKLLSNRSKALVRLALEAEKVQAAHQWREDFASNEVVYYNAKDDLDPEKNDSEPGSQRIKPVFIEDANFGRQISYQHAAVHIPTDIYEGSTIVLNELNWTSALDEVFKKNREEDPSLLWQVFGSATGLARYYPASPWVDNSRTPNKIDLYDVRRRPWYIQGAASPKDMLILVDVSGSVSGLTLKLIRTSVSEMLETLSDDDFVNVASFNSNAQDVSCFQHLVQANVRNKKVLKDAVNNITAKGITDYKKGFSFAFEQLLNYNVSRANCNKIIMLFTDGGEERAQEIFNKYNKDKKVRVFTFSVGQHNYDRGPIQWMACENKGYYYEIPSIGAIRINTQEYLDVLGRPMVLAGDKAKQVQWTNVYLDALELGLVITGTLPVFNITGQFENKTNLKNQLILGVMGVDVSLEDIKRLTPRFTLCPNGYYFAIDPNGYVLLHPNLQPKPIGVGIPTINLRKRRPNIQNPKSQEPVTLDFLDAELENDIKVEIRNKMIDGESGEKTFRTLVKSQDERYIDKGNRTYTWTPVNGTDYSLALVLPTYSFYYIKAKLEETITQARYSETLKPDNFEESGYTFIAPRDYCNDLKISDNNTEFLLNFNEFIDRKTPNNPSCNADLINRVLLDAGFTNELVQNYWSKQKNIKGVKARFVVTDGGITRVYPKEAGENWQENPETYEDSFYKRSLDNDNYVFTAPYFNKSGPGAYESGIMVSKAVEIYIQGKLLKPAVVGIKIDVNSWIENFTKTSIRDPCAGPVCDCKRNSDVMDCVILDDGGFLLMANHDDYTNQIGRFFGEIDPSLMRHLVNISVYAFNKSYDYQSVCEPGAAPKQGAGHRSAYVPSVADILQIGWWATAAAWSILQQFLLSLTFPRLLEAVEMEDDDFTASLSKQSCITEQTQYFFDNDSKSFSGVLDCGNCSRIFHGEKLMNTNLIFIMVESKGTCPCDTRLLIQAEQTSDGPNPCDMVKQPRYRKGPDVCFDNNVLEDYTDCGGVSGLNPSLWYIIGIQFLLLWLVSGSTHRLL

Ki ([1]; read-out: α2δ-1 binding)	Ki (Human μ-opioid receptor; read-out: μ-binding)	Compound	Ki [1]	Ki (Human μ-opioid receptor)
–	–	CCCC(c1nc2c(Cl)cc(F)cc2c(=O)n1CC)N1CCNCC1 (stereo not drawn) [Example 90, 8-chloro-3-ethyl-6-fluoro-2-(1-(piperazin-1-yl)butyl)quinazolin-4(3H)-one]	> 5000 nM	100 to 500 nM
–	–	CCCC(c1nc2ccc(Br)c(Cl)c2c(=O)n1CC)N1CCNCC1 (stereo not drawn) [Example 91, 6-bromo-5-chloro-3-ethyl-2-(1-(piperazin-1-yl)butyl)quinazolin-4(3H)-one]	< 500 nM	100 to 500 nM
–	–	CCCC(c1nc2cccnc2c(=O)n1CC)N1CCNCC1 (stereo not drawn) [Example 92, 3-ethyl-2-(1-(piperazin-1-yl)butyl)pyrido[3,2-d]pyrimidin-4(3H)-one]	< 500 nM	> 500 nM
–	–	CCCC(c1nc2ncc(Br)cc2c(=O)n1CC)N1CCNCC1 (stereo not drawn) [Example 93, 6-bromo-3-ethyl-2-(1-(piperazin-1-yl)butyl)pyrido[2,3-d]pyrimidin-4(3H)-one]	< 500 nM	> 500 nM
–	–	CCCC(c1nc2ncccc2c(=O)n1CC)N1CCNCC1 (stereo not drawn) [Example 94, 3-ethyl-2-(1-(piperazin-1-yl)butyl)pyrido[2,3-d]pyrimidin-4(3H)-one]	< 500 nM	> 500 nM
–	–	CCC[C@@H](c1nc2c(F)cc(Br)cc2c(=O)n1CC)N1CCNCC1 [Example 95, (S)-6-bromo-3-ethyl-8-fluoro-2-(1-(piperazin-1-yl)butyl)quinazolin-4(3H)-one]	> 5000 nM	> 500 nM
–	–	CCC[C@H](c1nc2c(F)cc(Br)cc2c(=O)n1CC)N1CCNCC1 [Example 96, (R)-6-bromo-3-ethyl-8-fluoro-2-(1-(piperazin-1-yl)butyl)quinazolin-4(3H)-one]	< 500 nM	100 to 500 nM
–	–	CCC[C@H](c1nc2ccc(Br)cc2c(=O)n1CC)N1CCN[C@@H](C)C1 [Example 97, 6-Bromo-3-ethyl-2-((R)-1-((S)-3-methylpiperazin-1-yl)butyl)quinazolin-4(3H)-one]	< 500 nM	100 to 500 nM
–	–	CCC[C@H](c1nc2ccc(Br)cc2c(=O)n1CC)N1CCN[C@H](C)C1 [Example 98, 6-bromo-3-ethyl-2-((R)-1-((R)-3-methylpiperazin-1-yl)butyl)quinazolin-4(3H)-one]	< 500 nM	> 500 nM
–	–	CCC[C@@H](c1nc2ccc(Br)cc2c(=O)n1CC)N1CCN[C@@H](C)C1 [Example 99, 6-bromo-3-ethyl-2-((S)-1-((S)-3-methylpiperazin-1-yl)butyl)quinazolin-4(3H)-one]	< 500 nM	> 500 nM
–	–	CCC[C@@H](c1nc2ccc(Br)cc2c(=O)n1CC)N1CCN[C@H](C)C1 [Example 100, 6-bromo-3-ethyl-2-((S)-1-((R)-3-methylpiperazin-1-yl)butyl)quinazolin-4(3H)-one]	> 5000 nM	> 500 nM
–	–	CCC[C@H](c1nc2ccc(Cl)cc2c(=O)n1CC)N1CCN[C@H](C)C1 [Example 101, 6-Chloro-3-ethyl-2-((R)-1-((R)-3-methylpiperazin-1-yl)butyl)quinazolin-4(3H)-one]	< 500 nM	> 500 nM
–	–	CCC[C@@H](c1nc2ccc(Cl)cc2c(=O)n1CC)N1CCN[C@H](C)C1 [Example 102, 6-chloro-3-ethyl-2-((S)-1-((R)-3-methylpiperazin-1-yl)butyl)quinazolin-4(3H)-one]	> 5000 nM	> 500 nM
–	–	CCC[C@H](c1nc2ccc(Cl)cc2c(=O)n1CC)N1CCN[C@@H](C)C1 [Example 103, 6-Chloro-3-ethyl-2-((R)-1-((S)-3-methylpiperazin-1-yl)butyl)quinazolin-4(3H)-one]	< 500 nM	< 100 nM
–	–	CCC[C@@H](c1nc2ccc(Cl)cc2c(=O)n1CC)N1CCN[C@@H](C)C1 [Example 104, 6-chloro-3-ethyl-2-((S)-1-((S)-3-methylpiperazin-1-yl)butyl)quinazolin-4(3H)-one]	> 5000 nM	> 500 nM
–	–	CCC[C@@H](c1nc2cc(F)c(Br)cc2c(=O)n1CC)N1CCN[C@@H](C)C1 [Example 105, 6-Bromo-3-ethyl-7-fluoro-2-((S)-1-((S)-3-methylpiperazin-1-yl)butyl)quinazolin-4(3H)-one]	< 500 nM	> 500 nM
–	–	CCC[C@H](c1nc2cc(F)c(Br)cc2c(=O)n1CC)N1CCN[C@@H](C)C1 [Example 106, 6-bromo-3-ethyl-7-fluoro-2-((R)-1-((S)-3-methylpiperazin-1-yl)butyl)quinazolin-4(3H)-one]	< 500 nM	< 100 nM

Ki ([1]; read-out: α2δ-1 binding)	Ki (Human μ-opioid receptor; read-out: μ-binding)	Compound	Ki [1]	Ki (Human μ-opioid receptor)
> 5000 nM	> 500 nM	CCC[C@@H](c1nc2ccc(Br)cc2c(=O)n1CC)N1CCN[C@@H](CCC(=O)O)C1 [Example 107, 3-((S)-4-((S)-1-(6-Bromo-3-ethyl-4-oxo-3,4-dihydroquinazolin-2-yl)butyl)piperazin-2-yl)propanoic acid]	–	–
> 5000 nM	> 500 nM	CCC[C@H](c1nc2ccc(Br)cc2c(=O)n1CC)N1CCN[C@@H](CCC(=O)O)C1 [Example 108, 3-((S)-4-((R)-1-(6-bromo-3-ethyl-4-oxo-3,4-dihydroquinazolin-2-yl)butyl)piperazin-2-yl)propanoic acid]	–	–
–	–	CCC[C@H](c1nc2ccc(Br)cc2c(=O)n1CC)N1CCN(C)[C@H](C)C1 [Example 109, 6-Bromo-2-((R)-1-((R)-3,4-dimethylpiperazin-1-yl)butyl)-3-ethylquinazolin-4(3H)-one]	< 500 nM	100 to 500 nM
–	–	CCC[C@@H](c1nc2ccc(Br)cc2c(=O)n1CC)N1CCN(C)[C@H](C)C1 [Example 110, 6-bromo-2-((S)-1-((R)-3,4-dimethylpiperazin-1-yl)butyl)-3-ethylquinazolin-4(3H)-one]	> 5000 nM	> 500 nM
–	–	CCC[C@@H](c1nc2ccc(Br)cc2c(=O)n1CC)N1CCN(C)[C@@H](C)C1 [Example 111, 6-Bromo-2-((S)-1-((S)-3,4-dimethylpiperazin-1-yl)butyl)-3-ethylquinazolin-4(3H)-one]	> 5000 nM	> 500 nM
–	–	CCC[C@H](c1nc2ccc(Br)cc2c(=O)n1CC)N1CCN(C)[C@@H](C)C1 [Example 112, 6-bromo-2-((R)-1-((S)-3,4-dimethylpiperazin-1-yl)butyl)-3-ethylquinazolin-4(3H)-one]	500 to 5000 nM	< 100 nM
–	–	CCCC(c1nc2ccccc2c(=O)n1CCOC)N1C[C@@H](C)N[C@@H](C)C1 (stereo partly drawn) [Example 113, 2-(1-((3S,5R)-3,5-Dimethylpiperazin-1-yl)butyl)-3-(2-methoxyethyl)quinazolin-4(3H)-one]	< 500 nM	> 500 nM
> 5000 nM	> 500 nM	COCCn1c(C(CC(C)C)N2C[C@@H](C)N[C@@H](C)C2)nc2ccccc2c1=O (stereo partly drawn) [Example 114, 2-(1-((3S,5R)-3,5-dimethylpiperazin-1-yl)-3-methylbutyl)-3-(2-methoxyethyl)quinazolin-4(3H)-one]	–	–
–	–	CCCC(c1nc2ccccc2c(=O)n1Cc1ccco1)N1C[C@@H](C)N[C@@H](C)C1 (stereo partly drawn) [Example 118, 2-(1-((3S,5R)-3,5-dimethylpiperazin-1-yl)butyl)-3-(furan-2-ylmethyl)quinazolin-4(3H)-one]	< 500 nM	> 500 nM
–	–	CCCC(c1nc2ccc(C)cc2c(=O)n1CCOC)N1C[C@@H](C)N[C@@H](C)C1 (stereo partly drawn) [Example 119, 2-(1-((3S,5R)-3,5-dimethylpiperazin-1-yl)butyl)-3-(2-methoxyethyl)-6-methylquinazolin-4(3H)-one]	< 500 nM	> 500 nM
–	–	CCCC(c1nc2ccc(OC)cc2c(=O)n1CCOC)N1C[C@@H](C)N[C@@H](C)C1 (stereo partly drawn) [Example 120, 2-(1-((3S,5R)-3,5-dimethylpiperazin-1-yl)butyl)-6-methoxy-3-(2-methoxyethyl)quinazolin-4(3H)-one]	< 500 nM	> 500 nM
–	–	CCCC(c1nc2cnccc2c(=O)n1CCOC)N1C[C@@H](C)N[C@@H](C)C1 (stereo partly drawn) [Example 121, 2-(1-((3S,5R)-3,5-dimethylpiperazin-1-yl)butyl)-3-(2-methoxyethyl)pyrido[3,4-d]pyrimidin-4(3H)-one]	< 500 nM	> 500 nM
500 to 5000 nM	> 500 nM	CCCC(c1nc2ccc(Br)cc2c(=O)n1CCC(=O)OCC)N1C[C@@H](C)N[C@@H](C)C1 (stereo partly drawn) [Example 122, ethyl 3-(6-bromo-2-(1-((3S,5R)-3,5-dimethylpiperazin-1-yl)butyl)-4-oxoquinazolin-3(4H)-yl)propanoate]	–	–
–	–	CCC[C@H](c1nc2ccccc2c(=O)n1CCOC)N1C[C@@H](C)N[C@@H](C)C1 [Example 123, 2-((R)-1-((3S,5R)-3,5-Dimethylpiperazin-1-yl)butyl)-3-(2-methoxyethyl)quinazolin-4(3H)-one]	< 500 nM	> 500 nM
–	–	CCC[C@@H](c1nc2ccccc2c(=O)n1CCOC)N1C[C@@H](C)N[C@@H](C)C1 [Example 124, 2-((S)-1-((3S,5R)-3,5-dimethylpiperazin-1-yl)butyl)-3-(2-methoxyethyl)quinazolin-4(3H)-one]	500 to 5000 nM	> 500 nM
–	–	CCCC(c1nc2ccc(Br)cc2c(=O)n1CCC(=O)O)N1C[C@@H](C)N[C@@H](C)C1 (stereo partly drawn) [Example 125, 3-(6-Bromo-2-(1-((3S,5R)-3,5-dimethylpiperazin-1-yl)butyl)-4-oxoquinazolin-3(4H)-yl)propanoic acid]	500 to 5000 nM	100 to 500 nM

Compound	Ki ([1]; read-out: α2δ-1 binding)	Ki (Human μ-opioid receptor; read-out: μ-binding)	Ki [1]	Ki (Human μ-opioid receptor)
CCCCC(c1nc2ccccc2c(=O)n1CCOC)N1C[C@@H](C)N[C@@H](C)C1 (stereo partly drawn) [Example 115, 2-(1-((3S,5R)-3,5-dimethylpiperazin-1-yl)pentyl)-3-(2-methoxyethyl)quinazolin-4(3H)-one]	–	> 500 nM	500 to 5000 nM	–
COCCn1c(C(CC2CC2)N2C[C@@H](C)N[C@@H](C)C2)nc2ccccc2c1=O (stereo partly drawn) [Example 116, 2-(2-cyclopropyl-1-((3S,5R)-3,5-dimethylpiperazin-1-yl)ethyl)-3-(2-methoxyethyl)quinazolin-4(3H)-one]	–	> 500 nM	500 to 5000 nM	–
CCCC(c1nc2ccccc2c(=O)n1CCOC)N1CCNCC1 (stereo not drawn) [Example 117, 3-(2-methoxyethyl)-2-(1-(piperazin-1-yl)butyl)quinazolin-4(3H)-one]	–	> 500 nM	500 to 5000 nM	–
